# pIC50: −log10 of the molar value. Read-outs that look alike come from different tables or passages of the source.
# Columns and labels:
# mTOR = mTOR (Homo sapiens, UniProt P42345); test: mTOR enzymology assay (in vitro enzyme inhibition, ULight-4E-BP1 peptide, Lance signal); type: biochemical; settings: mTOR 2.5 nM, ULight-4E-BP1 peptide 50 nM, ATP 10.8 uM, 60 mins
# Protocol: mTOR Enzymology Assay Procedures
# 1. The agent's final concentrations and the compound solution preparation
# 1.1 mTOR (2.5 nM) kinase solution, substrate ULight-4E-BP1 peptide 50 nM, ATP 10.8 uM;
# (§1) 1.2 4 folds kinase solution, 2 folds substrate and ATP solution;
# (§2) 1.3 test compound 1 mM stock solution (final concentration 100 folds of DMSO solution).
# (§3) 2.1 test compound 1 mM, diluted with DMSO 4 folds gradient, and then diluted with kinase buffer 25 folds;
# (§4) 2.2 To each well in a 384-well plate was added 2.5 μL series diluted compounds;
# 2.3 To each well was added 2.5 μL 4 fold kinase solution;
# (§5) 2.4 To each well was added 2.5 μL substrate/ATP solution;
# (§6) 2.5 incubated for 60 mins;
# 2.6 Envision data reading Lance signal (665 nM).
# The inhibition ratio %=(Lance signal−min)/(max−min)×100
# wherein “max” is the DMSO control containing the enzyme but not containing the compound; “min” is the control without the kinase.
# Input the data into GraphPad Prism5.0 to plot a curve and obtain IC50.
# [1] = Pharmacokinetic assay in rat in vivo; settings: Sprague-Dawley (SD), plasma, male SD rats; for half-life: read-out: T1/2 (half-life) (converted); for bioavailability: PO(4 mg/kg) vs IV, read-out: F(%) absolute bioavailability
# Protocol: Male SD rats, each test substance, each administration, three rats were used, having a body weight of 200-250 g.
# the present compounds: Compound 16, dissolved with 5% NMP+60% PEG400+35% sterile water for injection, other compounds, dissolved with 5% NMP+40% PEG400+55% sterile water for injection.
# Blood collection: each of about 100 μL whole blood were collected at 0 h before administration (pre-administration), and at 0.083 h, 0.25 h, 0.5 h, 1 h, 2 h, 4 h, 6 h, 8 h and 24 h after administration. The collected blood samples were centrifuged at 8000 rpm in a high-speed centrifuge for 6 mins to separate the blood plasm. The separated plasm was freezing-preserved at −80° C. in a refrigerator.
# Plasm sample analysis: The plasm sample was treated by a liquid-liquid extraction. 20 μL of the plasm was taken, subjected to a vortex at 1500 rpm for 10 mins, and then centrifuged at 12000 rpm for 5 mins. 400 μL of the supernatant was taken and blowed to dryness in the nitrogen gas. The resulting substance is re-dissolved in 200 μL methanol:water (1:1, V/V), and the solution was analyzed with LC-MS/MS.
# PI3Kα = PI3Kα (Homo sapiens, UniProt P42336); test: PI3Kα enzymology assay (in vitro enzyme inhibition); type: biochemical; settings: PI3Kα 1.65 nM, PIP2 50 μM, ATP 25 μM, 60 mins
# Protocol: PI3Kα Enzymology Assay Procedures
# 1. The agent's final concentrations and the compound formulation
# 1.1 PI3Kα (1.65 nM) kinase solution, substrate PIP2 50 μM, ATP 25 μM;
# as §1, §2, §3, §4
# 2.3 To each well was added 2.5 μL 4 folds kinase solution;
# as §5, §6
# 2.6 Envision data reading: Lance signal ([…]).
# The inhibition ratio %=(sample RLU−min)/(max−min)×100
# wherein “max” is the control without the kinase; “min” is the DMSO control containing the enzyme but not containing the compound.
# Data were input into GraphPad Prism 5.0 to plot a curve and obtain IC50.
# U87MG cells = test: In vitro cellular inhibitory activity, XTT cell viability, U87MG; type: cell-based; settings: Homo sapiens, U-87 MG, 72 hours
# Protocol: (§7) 1. Formulating the agents and the compounds: Formulating the PBS, the XTT working liquor, the paclitaxel stock solution and gradient dilute solutions thereof, and the stock solution of test compound and gradient dilute solutions of test compounds.
# (§8) 2. Culturing cells: Thawing cells, Passing cells, Freezing and preserving cells.
# (§9) Preparing the cell suspension;
# (§10) The cell suspension was added to a 96-well plate, 100 μL per well;
# (§11) The plate was placed in the incubator and incubated at 37° C. under 5% CO2 overnight.
# (§12) Drugs were added to the cell culture plate. The plate was placed in the CO2 incubator and incubated for 72 hours.
# (§13) 5. Testing the cell viability with the XTT method
# (§14) The XTT working solution was added to the plate. The plate was placed in the CO2 incubator for 2 hours. Then the plate was placed in a microplate reader to read the absorbance at 450 nm.
# (§15) 1) % inhibition=(Absorbance (Vehicle)−Absorbance(Compound))/(Absorbance(Vehicle)−Absorbance(positive control)×100%;
# (§16) 2) Data were input into GraphPad Prism 5.0 to plot a curve and obtain IC50.
# A549 cells = test: In vitro cellular inhibitory activity, XTT cell viability, A549; type: cell-based; settings: Homo sapiens, 72 hours
# Protocol: as §7, §8, §9, §10, §11, §12, §13, §14, §15, §16
# [2] = IV(2 mg/kg), dosage in Table 3 (Compound 16: 0.45 mg/kg)
# Sequence of PI3Kα (P42336 whole entry): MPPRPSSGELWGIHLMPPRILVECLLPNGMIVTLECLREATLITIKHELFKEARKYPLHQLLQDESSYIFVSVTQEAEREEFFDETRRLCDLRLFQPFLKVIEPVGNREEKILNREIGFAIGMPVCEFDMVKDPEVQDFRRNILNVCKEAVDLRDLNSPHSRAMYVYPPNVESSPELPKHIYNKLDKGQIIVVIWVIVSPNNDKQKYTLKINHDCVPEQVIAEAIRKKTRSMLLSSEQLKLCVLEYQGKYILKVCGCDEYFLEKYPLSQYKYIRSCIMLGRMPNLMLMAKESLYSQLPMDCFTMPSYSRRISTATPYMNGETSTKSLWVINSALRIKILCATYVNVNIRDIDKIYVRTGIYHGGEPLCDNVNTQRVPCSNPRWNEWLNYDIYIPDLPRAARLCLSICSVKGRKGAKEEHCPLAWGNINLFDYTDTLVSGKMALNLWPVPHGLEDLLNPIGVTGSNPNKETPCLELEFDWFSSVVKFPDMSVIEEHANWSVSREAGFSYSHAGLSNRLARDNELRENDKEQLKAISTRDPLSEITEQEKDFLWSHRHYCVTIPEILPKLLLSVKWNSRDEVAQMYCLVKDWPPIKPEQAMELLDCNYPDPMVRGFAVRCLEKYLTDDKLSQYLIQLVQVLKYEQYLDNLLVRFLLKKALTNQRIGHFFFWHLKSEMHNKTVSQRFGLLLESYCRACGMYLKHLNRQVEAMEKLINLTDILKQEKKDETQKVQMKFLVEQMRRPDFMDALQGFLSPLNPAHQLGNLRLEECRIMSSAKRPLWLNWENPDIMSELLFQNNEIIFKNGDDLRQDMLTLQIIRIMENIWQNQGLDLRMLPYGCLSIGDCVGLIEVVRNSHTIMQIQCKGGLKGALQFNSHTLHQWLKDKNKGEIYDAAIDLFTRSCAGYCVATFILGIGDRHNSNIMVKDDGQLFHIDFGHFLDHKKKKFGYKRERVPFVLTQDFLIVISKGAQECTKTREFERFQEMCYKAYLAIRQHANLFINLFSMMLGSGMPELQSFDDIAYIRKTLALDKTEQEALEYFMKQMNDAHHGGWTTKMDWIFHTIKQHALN
# Sequence of PI3Kα (P27986 whole entry partner): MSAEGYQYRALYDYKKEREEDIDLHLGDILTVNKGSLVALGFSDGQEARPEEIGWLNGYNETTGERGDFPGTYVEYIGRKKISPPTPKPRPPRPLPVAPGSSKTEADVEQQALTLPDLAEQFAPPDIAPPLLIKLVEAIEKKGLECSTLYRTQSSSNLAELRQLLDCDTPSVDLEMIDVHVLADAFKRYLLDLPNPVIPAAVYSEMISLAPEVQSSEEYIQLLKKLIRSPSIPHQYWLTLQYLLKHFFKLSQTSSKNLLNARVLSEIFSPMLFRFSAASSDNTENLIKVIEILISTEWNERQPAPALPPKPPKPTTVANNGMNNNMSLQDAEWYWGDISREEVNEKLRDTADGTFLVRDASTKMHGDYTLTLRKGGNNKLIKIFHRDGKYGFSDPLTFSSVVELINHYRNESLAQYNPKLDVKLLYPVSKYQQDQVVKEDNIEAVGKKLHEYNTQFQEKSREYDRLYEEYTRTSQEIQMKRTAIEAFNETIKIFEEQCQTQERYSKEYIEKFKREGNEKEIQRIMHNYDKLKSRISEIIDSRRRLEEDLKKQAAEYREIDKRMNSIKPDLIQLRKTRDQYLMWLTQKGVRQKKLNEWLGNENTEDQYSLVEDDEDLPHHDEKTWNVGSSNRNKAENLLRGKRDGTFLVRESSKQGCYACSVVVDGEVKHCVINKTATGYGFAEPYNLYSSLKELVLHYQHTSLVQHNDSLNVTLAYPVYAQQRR
Structure (SMILES),pIC50 (mTOR),"AUC(0-t) [1, 2]","half-life [1, 2]",bioavailability [1],"AUC(0-t) ([1]; PO(4 mg/kg), intragastric)","half-life ([1]; PO(4 mg/kg), intragastric)",pIC50 (PI3Kα),pIC50 (U87MG cells),pIC50 (A549 cells)
"O=c1ccc2cnc3ccc(-c4c[nH]c5ncccc45)nc3c2n1-c1cccc(C(F)(F)F)c1 [Compound 17, 2-(1H-pyrrolo[2,3-b]pyridin-3-yl)-10-(3-(trifluoromethyl)phenyl)pyrido[3,2-c][1,5]naphthyridin-9(10H)-one]",8.28,723 ng·h/mL,0.61 h,20.8%,212 ng·h/mL,5.68 h,7.35,,
"O=c1ccc2cnc3ccc(-c4ccc(-n5cccn5)nc4)nc3c2n1-c1cccc(C(F)(F)F)c1 [Compound 20, 2-(6-(1H-pyrazol-1-yl)pyridin-3-yl)-10-(3-(trifluoromethyl)phenyl)pyrido[3,2-c][1,5]naphthyridin-9(10H)-one]",8.22,,,,,,6.98,,
"Nc1ncc(-c2ccc3ncc4ccc(=O)n(-c5cccc(C(F)(F)F)c5)c4c3n2)cn1 [Compound 13, 2-(2-aminopyrimidin-5-yl)-10-(3-(trifluoromethyl)phenyl)pyrido[3,2-c][1,5]naphthyridin-9(10H)-one]",9.33,711 ng·h/mL,0.62 h,49%,707 ng·h/mL,1.44 h,8.62,7.58,
"CN1CCN(c2ccc(-c3ccc4ncc5ccc(=O)n(-c6cccc(C(F)(F)F)c6)c5c4n3)cn2)CC1 [Compound 19, 2-(6-(4-methylpiperazin-1-yl)pyridin-3-yl)-10-(3-(trifluoromethyl)phenyl)pyrido[3,2-c][1,5]naphthyridin-9(10H)-one]",8.64,,,,,,6.80,,
"O=c1ccc2cnc3ccc(-c4cnc5[nH]ccc5c4)nc3c2n1-c1cccc(C(F)(F)F)c1 [Compound 39, 2-(1H-pyrrolo[2,3-b]pyridin-5-yl)-10-(3-(trifluoromethyl)phenyl)pyrido[3,2-c][1,5]naphthyridin-9(10H)-one]",9.05,,,,,,8.60,8.08,8.17
"CC(=O)Nc1ccc(-c2ccc3ncc4ccc(=O)n(-c5cccc(C(F)(F)F)c5)c4c3n2)cn1 [Compound 15, N-(5-(9-oxo-10-(3-(trifluoromethyl)phenyl)-9,10-dihydropyrido[3,2-c][1,5]naphthyridin-2-yl)pyridin-2-yl)acetamide]",8.52,441 ng·h/mL,0.71 h,65%,550 ng·h/mL,2.36 h,8.21,7.90,7.69
"Nc1ccc(-c2ccc3ncc4ccc(=O)n(-c5cccc(C(F)(F)F)c5)c4c3c2)cn1 [Torin-2, 9-(6-Aminopyridin-3-yl)-1-(3-(trifluoromethyl)phenyl)benzo[h][1,6]naphthyridin-2(1H)-one, reference compound]",,259 ng·h/mL,,22.6%,104 ng·h/mL,,,7.91,7.83
"COc1ncc(-c2ccc3ncc4ccc(=O)n(-c5cccc(C(F)(F)F)c5)c4c3n2)cn1 [Compound 14, 2-(2-methoxypyrimidin-5-yl)-10-(3-(trifluoromethyl)phenyl)pyrido[3,2-c][1,5]naphthyridin-9(10H)-one]",8.36,,,42.3%,445 ng·h/mL,3.49 h,8.06,,
"O=c1ccc2cnc3ccc(-c4ccc(CO)nc4)nc3c2n1-c1cccc(C(F)(F)F)c1 [Compound 18, 2-(6-(hydroxymethyl)pyridin-3-yl)-10-(3-(trifluoromethyl)phenyl)pyrido[3,2-c][1,5]naphthyridin-9(10H)-one]",8.59,,,,,,8.44,,
"CSc1ccc(-c2ccc3ncc4ccc(=O)n(-c5cccc(C(F)(F)F)c5)c4c3n2)cn1 [Compound 38, 2-(6-(methylthio)pyridin-3-yl)-10-(3-(trifluoromethyl)phenyl)pyrido[3,2-c][1,5]naphthyridin-9(10H)-one]",8.30,,,,,,7.77,,
"N#Cc1ccc(-c2ccc3ncc4ccc(=O)n(-c5cccc(C(F)(F)F)c5)c4c3n2)cn1 [Compound 16, 5-(9-oxo-10-(3-(trifluoromethyl)phenyl)-9,10-dihydropyrido[3,2-c][1,5]naphthyridin-2-yl)-2-cyanopyridine]",8.06,195 ng·h/mL,1.52 h,23%,410 ng·h/mL,1.67 h,7.24,,
"Nc1ccc(-c2ccc3ncc4ccc(=O)n(-c5cccc(C(F)(F)F)c5)c4c3n2)cn1 [Compound 1, 2-(6-aminopyridin-3-yl)-10-(3-(trifluoromethyl)phenyl)pyrido[3,2-c][1,5]naphthyridin-9(10H)-one]",9.06,1310 ng·h/mL,1.79 h,43.7%,1030 ng·h/mL,2.78 h,8.49,8.05,7.92
"CC(C)(C#N)c1ccc(-n2c(=O)ccc3cnc4ccc(-c5ccc(N)nc5)nc4c32)cc1 [Compound 7, 2-(4-(2-(6-aminopyridin-3-yl)-9-oxopyrido[3,2-c][1,5]naphthyridin-10(9H)-yl)phenyl)-2-methylpropanenitrile]",,,,,,,,7.53,

# From US9475812B2, “Pyridonaphthyridine type dual PI3K and mTOR inhibitor and its preparation and use” (Xuanzhu Pharma Co., Ltd., priority 2011, dated 2016)
